{"source": "PubChem BioAssay (NCI)", "assay_in_all_cases": "growth of human tumour cells (NCI), 48 h", "key": {"OVCAR-8 ovarian": {"tested_on": "OVCAR-8 ovarian"}, "UACC-62 melanoma": {"tested_on": "UACC-62 melanoma"}, "OVCAR-5 ovarian": {"tested_on": "OVCAR-5 ovarian"}, "RPMI-8226 leukemia": {"tested_on": "RPMI-8226 leukemia"}, "NCI-H23 lung": {"tested_on": "NCI-H23 lung"}, "MALME-3M melanoma": {"tested_on": "MALME-3M melanoma"}, "RXF 393 renal": {"tested_on": "RXF 393 renal"}, "EKVX NSCLC": {"tested_on": "EKVX NSCLC"}, "IGROV1 ovarian": {"tested_on": "IGROV1 ovarian"}, "OVCAR-4 ovarian": {"tested_on": "OVCAR-4 ovarian"}, "MOLT-4 leukemia": {"tested_on": "MOLT-4 leukemia"}, "DLD-1 colon": {"tested_on": "DLD-1 colon"}, "SK-MEL-2 melanoma": {"tested_on": "SK-MEL-2 melanoma"}, "M14 melanoma": {"tested_on": "M14 melanoma"}, "SK-MEL-28 melanoma": {"tested_on": "SK-MEL-28 melanoma"}, "U251 CNS": {"tested_on": "U251 CNS"}, "SNB-75 CNS": {"tested_on": "SNB-75 CNS"}, "DMS 273 small cell lung": {"tested_on": "DMS 273 small cell lung"}, "SF-539 CNS": {"tested_on": "SF-539 CNS"}, "HCC-2998 colon": {"tested_on": "HCC-2998 colon"}, "NCI-H460 lung": {"tested_on": "NCI-H460 lung"}, "HOP-62 NSCLC": {"tested_on": "HOP-62 NSCLC"}, "HT29 colon": {"tested_on": "HT29 colon"}, "SW-620 colon": {"tested_on": "SW-620 colon"}, "K-562 leukemia": {"tested_on": "K-562 leukemia"}, "786-0 renal": {"tested_on": "786-0 renal"}, "SNB-19 CNS": {"tested_on": "SNB-19 CNS"}, "UACC-257 melanoma": {"tested_on": "UACC-257 melanoma"}, "A549 NSCLC": {"tested_on": "A549 NSCLC"}, "LOX IMVI melanoma": {"tested_on": "LOX IMVI melanoma"}, "XF 498 CNS": {"tested_on": "XF 498 CNS"}, "HCT-116 colon": {"tested_on": "HCT-116 colon"}, "KM20L2 colon": {"tested_on": "KM20L2 colon"}, "DMS 114 small cell lung": {"tested_on": "DMS 114 small cell lung"}, "SF-295 CNS": {"tested_on": "SF-295 CNS"}, "M19-MEL melanoma": {"tested_on": "M19-MEL melanoma"}, "HOP-18 NSCLC": {"tested_on": "HOP-18 NSCLC"}, "SF-268 CNS": {"tested_on": "SF-268 CNS"}, "SN12C renal": {"tested_on": "SN12C renal"}, "KM12 colon": {"tested_on": "KM12 colon"}, "LXFL 529 NSCLC": {"tested_on": "LXFL 529 NSCLC"}, "NCI-H522 lung": {"tested_on": "NCI-H522 lung"}, "SR leukemia": {"tested_on": "SR leukemia"}, "COLO 205 colon": {"tested_on": "COLO 205 colon"}, "HCT-15 colon": {"tested_on": "HCT-15 colon"}, "ACHN renal": {"tested_on": "ACHN renal"}, "TK-10 renal": {"tested_on": "TK-10 renal"}, "SNB-78 CNS": {"tested_on": "SNB-78 CNS"}, "UO-31 renal": {"tested_on": "UO-31 renal"}, "A498 renal": {"tested_on": "A498 renal"}, "CAKI-1 renal": {"tested_on": "CAKI-1 renal"}, "OVCAR-3 ovarian": {"tested_on": "OVCAR-3 ovarian"}, "SK-MEL-5 melanoma": {"tested_on": "SK-MEL-5 melanoma"}}, "note": "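The compound was tested at five concentrations on cells cultured in 96-well plates, with a 48-hour exposure period. TGI: concentration producing complete growth inhibition.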"}
{"molecule": "O=C(c1ccccc1)[C@H]1Nc2ccc(Cl)cc2[C@H]2c3ccccc3O[C@H]21", "values": [{"measurement": "TGI", "setting": "OVCAR-8 ovarian", "value": 34.6, "unit": "µM"}, {"measurement": "TGI", "setting": "UACC-62 melanoma", "value": 28.6, "unit": "µM"}, {"measurement": "TGI", "setting": "OVCAR-5 ovarian", "value": 29.5, "unit": "µM"}, {"measurement": "TGI", "setting": "RPMI-8226 leukemia", "value": "> 100", "unit": "µM"}, {"measurement": "TGI", "setting": "NCI-H23 lung", "value": 28.1, "unit": "µM"}, {"measurement": "TGI", "setting": "MALME-3M melanoma", "value": 31.7, "unit": "µM"}, {"measurement": "TGI", "setting": "RXF 393 renal", "value": 22.4, "unit": "µM"}, {"measurement": "TGI", "setting": "EKVX NSCLC", "value": 28.6, "unit": "µM"}, {"measurement": "TGI", "setting": "IGROV1 ovarian", "value": 38.2, "unit": "µM"}, {"measurement": "TGI", "setting": "OVCAR-4 ovarian", "value": 32.3, "unit": "µM"}, {"measurement": "TGI", "setting": "MOLT-4 leukemia", "value": 37.7, "unit": "µM"}, {"measurement": "TGI", "setting": "DLD-1 colon", "value": 30, "unit": "µM"}, {"measurement": "TGI", "setting": "SK-MEL-2 melanoma", "value": 27.3, "unit": "µM"}, {"measurement": "TGI", "setting": "M14 melanoma", "value": 30.1, "unit": "µM"}, {"measurement": "TGI", "setting": "SK-MEL-28 melanoma", "value": 25.8, "unit": "µM"}, {"measurement": "TGI", "setting": "U251 CNS", "value": 29.2, "unit": "µM"}, {"measurement": "TGI", "setting": "SNB-75 CNS", "value": 25.6, "unit": "µM"}, {"measurement": "TGI", "setting": "DMS 273 small cell lung", "value": 38.7, "unit": "µM"}, {"measurement": "TGI", "setting": "SF-539 CNS", "value": 28.7, "unit": "µM"}, {"measurement": "TGI", "setting": "HCC-2998 colon", "value": 31.5, "unit": "µM"}, {"measurement": "TGI", "setting": "NCI-H460 lung", "value": 34.3, "unit": "µM"}, {"measurement": "TGI", "setting": "HOP-62 NSCLC", "value": 32.5, "unit": "µM"}, {"measurement": "TGI", "setting": "HT29 colon", "value": 26.1, "unit": "µM"}, {"measurement": "TGI", "setting": "SW-620 colon", "value": 31.2, "unit": "µM"}, {"measurement": "TGI", "setting": "K-562 leukemia", "value": 36.7, "unit": "µM"}, {"measurement": "TGI", "setting": "786-0 renal", "value": 30.6, "unit": "µM"}, {"measurement": "TGI", "setting": "SNB-19 CNS", "value": 29.3, "unit": "µM"}, {"measurement": "TGI", "setting": "UACC-257 melanoma", "value": 8.48, "unit": "µM"}, {"measurement": "TGI", "setting": "A549 NSCLC", "value": 30.2, "unit": "µM"}, {"measurement": "TGI", "setting": "LOX IMVI melanoma", "value": 37.2, "unit": "µM"}, {"measurement": "TGI", "setting": "XF 498 CNS", "value": 28.2, "unit": "µM"}, {"measurement": "TGI", "setting": "HCT-116 colon", "value": 34.3, "unit": "µM"}, {"measurement": "TGI", "setting": "KM20L2 colon", "value": 28.3, "unit": "µM"}, {"measurement": "TGI", "setting": "DMS 114 small cell lung", "value": 40.1, "unit": "µM"}, {"measurement": "TGI", "setting": "SF-295 CNS", "value": 28.9, "unit": "µM"}, {"measurement": "TGI", "setting": "M19-MEL melanoma", "value": 39.5, "unit": "µM"}, {"measurement": "TGI", "setting": "HOP-18 NSCLC", "value": 24, "unit": "µM"}, {"measurement": "TGI", "setting": "SF-268 CNS", "value": 33.9, "unit": "µM"}, {"measurement": "TGI", "setting": "SN12C renal", "value": 29.1, "unit": "µM"}, {"measurement": "TGI", "setting": "KM12 colon", "value": 30.2, "unit": "µM"}, {"measurement": "TGI", "setting": "LXFL 529 NSCLC", "value": 28.5, "unit": "µM"}, {"measurement": "TGI", "setting": "NCI-H522 lung", "value": 33.8, "unit": "µM"}, {"measurement": "TGI", "setting": "SR leukemia", "value": 66.6, "unit": "µM"}, {"measurement": "TGI", "setting": "COLO 205 colon", "value": 37.4, "unit": "µM"}, {"measurement": "TGI", "setting": "HCT-15 colon", "value": 28.4, "unit": "µM"}, {"measurement": "TGI", "setting": "ACHN renal", "value": 28.7, "unit": "µM"}, {"measurement": "TGI", "setting": "TK-10 renal", "value": 30.4, "unit": "µM"}, {"measurement": "TGI", "setting": "SNB-78 CNS", "value": 32.3, "unit": "µM"}, {"measurement": "TGI", "setting": "UO-31 renal", "value": 18.2, "unit": "µM"}, {"measurement": "TGI", "setting": "A498 renal", "value": 24.5, "unit": "µM"}, {"measurement": "TGI", "setting": "CAKI-1 renal", "value": 29.1, "unit": "µM"}, {"measurement": "TGI", "setting": "OVCAR-3 ovarian", "value": 25.7, "unit": "µM"}, {"measurement": "TGI", "setting": "SK-MEL-5 melanoma", "value": 27.5, "unit": "µM"}]}
